From patent publication US12570605B2, “Indole compounds, and preparation methods, and uses thereof” (Shenzhen 01 Life Science and Technology Co., Ltd., priority 2021, dated 2026)
Entries after “also recorded” stand apart in the source; their conditions may differ.

Columns and labels:
[1] = tested on: mouse model with ear AD-like symptoms induced by calcipotriol (MC903); assay: Mouse model with ear AD-like symptoms induced by calcipotriol (MC903), first batch of experiments (Embodiment 32); assay type: in vivo, BALB/c mouse; conditions: MC903 6.9 nmol/mouse every day; for reducing ear thicknesses of the mice / reducing the total serum IgE levels of the mice: both ears, 11 consecutive days, vs model control group (MC903+EtOH), Mann-Whitney test; for therapeutic effects on AD-like symptoms in the ear of mice (combined with ear inflammation and tissue HE staining): 11 days
Procedure: (§1) A mouse model with ear AD-like symptoms induced by calcipotriol (MC903) was used to investigate these compounds in terms of the treatment activity for AD.
(§2) Referring to the Patent with a publication number of CN 110368386 A, a mouse model induced by MC903 (Calcipotriene) was prepared, wherein both ears of the BALB/c mouse model were applied with MC903, MC903+indole-3-aldehyde (IAId), or MC903+the compound prepared from the embodiments for 11 consecutive days, respectively, and total serum IgE levels, ear thicknesses, and weight loss in relative to the weight at the beginning of the experiment were tested at the end of the experiment.
(§3) The data shown in the results were average values ±SD of five independently repeated trials. Significance analysis was performed using Mann-Whitney test on the differences of corresponding parameters of the mice with the treatment group (MC903+ethanol (EtOH)), which was only administrated with MC903, wherein * indicated P<0.05, ** indicated P<0.01; *** indicated P<0.001.
In this batch of experiments, the dosage of MC903, a drug for constructing the models, was 6.9 nmol/mouse every day, and the experimental results of Compounds 1, 2, 3, 6, 7, 19, 20, 28, 29, 30, 34, 37, 38, and 39 in this batch were shown in FIGS. 11 to 13.
(§4) EtOH group was a Blank control group, which was only administrated with ethanol. MC903+ EtOH group was a model control group, which was administrated with Calcipotriene and ethanol. The remaining groups were the groups which were administered with MC903 to construct the model, and then administrated with different drugs. Indole-3-aldehyde (IAId) group was the group administered with IAId, indole-3-methanol (I3C) group was the group administered with I3C. The other compound groups were the groups administered with corresponding compounds.

[2] = tested on: mouse model with ear AD-like symptoms induced by calcipotriol (MC903); assay: Optimum effective concentration in treatment of AD-like symptoms, MC903 mouse model (Embodiment 33); assay type: in vivo; conditions: vs group only administrated with MC903; for inhibitory effect on systematic inflammation (lower total serum IgE levels and improvement on AD-like symptoms in the mice ear): dosages per Table 11
Procedure: The above screened compounds having therapeutic effect on AD-like symptoms were selected to further determine the optimum effective concentration.
Referring to the animal model method in the Embodiment 32, dosages of drugs for each group were determined according to the table below, and the optimal effective concentration in treatment of AD-like symptoms was explored by comparing the differences in ear thicknesses, the total serum IgE levels and the weight loss of the mice with those of the treatment group only administrated with MC903.

[3] = tested on: mouse model with ear AD-like symptoms induced by calcipotriol (MC903); assay: Mouse model with ear AD-like symptoms induced by calcipotriol (MC903), second batch of experiments (Embodiment 32); assay type: in vivo, BALB/c mouse; conditions: MC903 5 nmol/mouse every day, 9 days; for therapeutic effects on AD-like symptoms in the ear of mice (ear inflammation, tissue HE staining, parameters of multiple experiments): screening over both batches; for reducing ear thicknesses of the mice / reducing the total serum IgE levels of the mice: vs model control group (MC903+EtOH), Mann-Whitney test
Procedure: as §1, §2, §3
Therefore, in the second batch of drug tests, the dosage of MC903 was decreased to 5 nmol/mouse every day, and the test period was reduced to 9 days.
as §4, with “then administered” for “then administrated”, “with IAId. Indole-3-methanol” for “with IAId, indole-3-methanol”

Compound	reducing ear thicknesses of the mice [1]	reducing the total serum IgE levels of the mice [1]	reducing the total serum IgE levels of the mice [3]	other results
CCCCCC(=O)OCOC(=O)n1cc(C=O)c2ccccc21 [Compound 1, (hexanoyloxy)methyl 3-formyl-1H-indole-1-carboxylate]	statistically significant difference	statistically significant difference	–	–
CCCCCCCC(=O)OCOC(=O)n1cc(C=O)c2ccccc21 [Compound 2, (octanoyloxy)methyl 3-formyl-1H-indole-1-carboxylate]	–	statistically significant difference	–	–
CCCCCCCCCCCC(=O)OCOC(=O)n1cc(C=O)c2ccccc21 [Compound 4, (dodecanoyloxy)methyl 3-formyl-1H-indole-1-carboxylate]	–	–	statistically significant difference; also recorded: excellent effects	inhibitory effect on systematic inflammation (lower total serum IgE levels and improvement on AD-like symptoms in the mice ear) [2]: good inhibitory effect; also recorded: excellent inhibitory effect; therapeutic effects on AD-like symptoms in the ear of mice (ear inflammation, tissue HE staining, parameters of multiple experiments) [3]: therapeutic effects; reducing ear thicknesses of the mice [3]: statistically significant difference
CC(=O)Oc1ccccc1C(=O)OCOC(=O)n1cc(C=O)c2ccccc21 [Compound 8, ((2-acetoxybenzoyl)oxy)methyl 3-formyl-1H-indole-1-carboxylate]	–	–	statistically significant difference	reducing ear thicknesses of the mice [3]: statistically significant difference
O=Cc1cn(C(=O)OCOC(=O)Cc2ccccc2Nc2c(Cl)cccc2Cl)c2ccccc12 [Compound 9, (2-(2-((2,6-dichlorophenyl)amino)phenyl)acetoxy)methyl 3-formyl-1H-indole-1-carboxylate]	–	–	statistically significant difference; also recorded: excellent effects	therapeutic effect on AD-like symptoms in the mouse ear ([2]; at different concentration): significant therapeutic effect; inhibitory effect on systematic inflammation (lower total serum IgE levels and improvement on AD-like symptoms in the mice ear) [2]: good inhibitory effect; therapeutic effects on AD-like symptoms in the ear of mice (ear inflammation, tissue HE staining, parameters of multiple experiments) [3]: therapeutic effects; reducing ear thicknesses of the mice [3]: statistically significant difference; also recorded: excellent effects
CCCCCC(=O)OCOC(=O)n1cc(CO)c2ccccc21 [Compound 19, (hexanoyloxy)methyl 3-(hydroxymethyl)-1H-indole-1-carboxylate]	statistically significant difference	–	–	–
CCCCCCCC(=O)OCOC(=O)n1cc(CO)c2ccccc21 [Compound 20, (octanoyloxy)methyl 3-(hydroxymethyl)-1H-indole-1-carboxylate]	statistically significant difference	–	–	–
CCCCCCCCCCCC(=O)OCOC(=O)n1cc(CO)c2ccccc21 [Compound 22, (dodecanoyloxy)methyl 3-(hydroxymethyl)-1H-indole-1-carboxylate]	–	–	statistically significant difference; also recorded: excellent effects	inhibitory effect on systematic inflammation (lower total serum IgE levels and improvement on AD-like symptoms in the mice ear) [2]: good inhibitory effect; therapeutic effects on AD-like symptoms in the ear of mice (ear inflammation, tissue HE staining, parameters of multiple experiments) [3]: therapeutic effects
CCCCCCCCCCCCCC(=O)OCOC(=O)n1cc(CO)c2ccccc21 [Compound 23, (tetradecanoyloxy)methyl 3-(hydroxymethyl)-1H-indole-1-carboxylate]	–	–	statistically significant difference	–
CCCCCCCCCCCCCCCC(=O)OCOC(=O)n1cc(CO)c2ccccc21 [Compound 24, (palmitoyloxy)methyl 3-(hydroxymethyl)-1H-indole-1-carboxylate]	–	–	statistically significant difference	–
CC(=O)Oc1ccccc1C(=O)OCOC(=O)n1cc(CO)c2ccccc21 [Compound 26, ((2-acetoxybenzoyl)oxy)methyl 3-(hydroxymethyl)-1H-indole-1-carboxylate]	–	–	statistically significant difference	–
O=C(Cc1ccccc1Nc1c(Cl)cccc1Cl)OCOC(=O)n1cc(CO)c2ccccc21 [Compound 27, (2-(2-((2,6-dichlorophenyl)amino)phenyl)acetoxy)methyl 3-(hydroxymethyl)-1H-indole-1-carboxylate]	–	–	statistically significant difference	reducing ear thicknesses of the mice [3]: statistically significant difference
CCCCCCCC(=O)OCn1cc(C=O)c2ccccc21 [Compound 29, (3-formyl-1H-indol-1-yl)methyl octanoate]	statistically significant difference; also recorded: excellent effects	statistically significant difference	–	therapeutic effects on AD-like symptoms in the ear of mice (combined with ear inflammation and tissue HE staining) [1]: significant therapeutic effects; inhibitory effect on systematic inflammation (lower total serum IgE levels and improvement on AD-like symptoms in the mice ear) [2]: good inhibitory effect; therapeutic effects on AD-like symptoms in the ear of mice (ear inflammation, tissue HE staining, parameters of multiple experiments) [3]: therapeutic effects; reducing ear thicknesses of the mice [3]: statistically significant difference
CCCCCCCCCC(=O)OCn1cc(C=O)c2ccccc21 [Compound 30, (3-formyl-1H-indol-1-yl)methyl decanoate]	statistically significant difference; also recorded: excellent effects	statistically significant difference; also recorded: excellent effects	statistically significant difference; also recorded: excellent effects	therapeutic effects on AD-like symptoms in the ear of mice (combined with ear inflammation and tissue HE staining) [1]: significant therapeutic effects; inhibitory effect on systematic inflammation (lower total serum IgE levels and improvement on AD-like symptoms in the mice ear) [2]: good inhibitory effect; also recorded: excellent inhibitory effect; therapeutic effects on AD-like symptoms in the ear of mice (ear inflammation, tissue HE staining, parameters of multiple experiments) [3]: therapeutic effects; reducing ear thicknesses of the mice [3]: statistically significant difference
CCCCCCCCCCCCCCCC(=O)OCn1cc(C=O)c2ccccc21 [Compound 33, (3-formyl-1H-indol-1-yl)methyl palmitate]	–	–	statistically significant difference	–
COCCOCCOCCOCCOCC(=O)OCn1cc(C=O)c2ccccc21 [Compound 34, (3-formyl-1H-indol-1-yl)methyl 2,5,8,11,14-pentaoxahexadecan-16-oate]	statistically significant difference	statistically significant difference	–	–
CC(=O)Oc1ccccc1C(=O)OCn1cc(C=O)c2ccccc21 [Compound 35, (3-formyl-1H-indol-1-yl)methyl 2-acetoxybenzoate]	–	–	statistically significant difference; also recorded: excellent effects	inhibitory effect on systematic inflammation (lower total serum IgE levels and improvement on AD-like symptoms in the mice ear) [2]: good inhibitory effect; therapeutic effects on AD-like symptoms in the ear of mice (ear inflammation, tissue HE staining, parameters of multiple experiments) [3]: therapeutic effects
CCCCCC(=O)OCn1cc(CO)c2ccccc21 [Compound 37, (3-(hydroxymethyl)-1H-indol-1-yl)methyl hexanoate]	–	statistically significant difference	–	–
CCCCCCCCCC(=O)OCn1cc(CO)c2ccccc21 [Compound 39, (3-(hydroxymethyl)-1H-indol-1-yl)methyl decanoate]	statistically significant difference	statistically significant difference	–	–
CCCCCCCCCCCCCC(=O)OCn1cc(CO)c2ccccc21 [Compound 41, (3-(hydroxymethyl)-1H-indol-1-yl)methyl tetradecanoate]	–	–	statistically significant difference	–
OCc1c[nH]c2ccccc12 [Compound I3C, indole-3-methanol, reference compound]	significantly reduced	significantly reduced	–	–
O=Cc1c[nH]c2ccccc12 [IAId, indole-3-carboxaldehyde, reference compound]	significantly reduced	significantly reduced	–	–
